In patent publication US20050159390A1, “Treatment and prevention of HIV and other viral infections” (priority 1998, published 2005):

Legend:
PBMCs = format: cell-based, human; conditions: human, 6 days
Method: For the standard PBMC assay, PHA-P stimulated cells from at least two normal donors were pooled, diluted in fresh medium to a final concentration of 1×10^6 cells/mL, and plated in the interior wells of a 96 well round bottom microplate at 50 μL/well (5×10^4 cells/well). Test drug dilutions were prepared at a 2× concentration in microfuge tubes and 100 μL of each concentration was placed in appropriate wells in a standard format. A predetermined dilution of virus stock was placed in each test well (50 μL, final MOI≅0.1). Wells with cells and virus alone were used for virus control. Separate plates were prepared identically without virus for drug cytotoxicity studies using an XTT assay system. […]
Tetrazolium dye staining of screening plates: After 6 days of incubation (37° C. with 5% CO2), the test plates were analyzed by staining with the tetrazolium dye XTT (2,3-b (2-methoxy-4-nitro-5-sulfophenyl)-2H-tetrazolium-5-carboxanilide). XTT-tetrazolium is metabolized by mitochondrial enzymes of metabolically active cells to a soluble formazan product, allowing the rapid quantitative analysis of the inhibition of HIV-induced cell killing by anti-HIV compounds. […] Plates were sealed with adhesive plate sealers and inverted several times to mix the soluble formazan product and the plate was read spectrophotometrically at 450 nm with a Molecular Devices Vmax plate reader. […]

HIV-1RF = assay: CEM-SS cell-based assay, inhibition of HIV-induced cell killing (XTT); conditions: 3.2 μM to 1 mM
Method: Cell Preparation: Prior to infection, CEM-SS cells were grown in complete tissue culture medium (RPMI 1640 medium with 10% heat-inactivated fetal bovine serum, 2 mM L-glutamine, 100 U/mL penicillin, 100 μg/mL streptomycin, 10 μg/mL gentamycin) and transferred to T-150 flasks. On the day preceding the assay, the cells were split 1:2 to assure the cells would be in an exponential growth phase at time of infection. On the day of assay, the cells were washed twice with tissue culture medium and resuspended in fresh tissue culture medium. […]
Virus Preparation: Pre-tittered aliquots of HIV-1ROJO and HIV-1RF were removed from the freezer (−80° C.) and thawed to room temperature in a biological safety cabinet. The virus was resuspended and diluted into tissue culture medium such that the amount of virus added to each well in a volume of 50 μL will be the amount determined to give complete cell killing at 6 days post-infection.
Tetrazolium dye staining of screening plates: After 6 days of incubation (37° C. with 5% CO2), the test plates were analyzed by staining with the tetrazolium dye XTT (2,3-b (2-methoxy-4-nitro-5-sulfophenyl)-2H-tetrazolium-5-carboxanilide). XTT-tetrazolium is metabolized by mitochondrial enzymes of metabolically active cells to a soluble formazan product, allowing the rapid quantitative analysis of the inhibition of HIV-induced cell killing by anti-HIV compounds. […]

HIV-1IIIB = assay: as above; conditions: 3.2 μM to 1 mM
HIV-1 MN = assay: P-24 assay, syncytia and CPE in infected PBMCs; format: cell-based
Method: PBMCs were isolated as described above and incubated with HIV-1 MN (NIH AIDS reagent program, catalog #137) at 37° C. for 3 hours in 15 mL tubes. Test groups included uninfected PBMCs, infected PBMCs with no N-glycolylneuraminic acid, and infected PBMCs plus N-glycolylneuraminic acid. […] Excess virus was removed by washing the cells with PBS one time then the cells were exposed to N-glycolylneuraminic acid. P24 output was measured using the DuPont P24 assay kit (optical density (OD) in Table 15). Syncytia formation was examined as well as cytopathic effects (CPE). […] Sample #7 (p24 123×10^6 pg HIV-1P24/ml) was excluded from the mean P24 output calculation due to a sampling error.

Molt-4 = assay: Cell proliferation in treated cell lines; format: cell-based, human; conditions: treated cell line; 0 to 200 μM or 1000 μM
DU-145 = assay: Cell proliferation in treated cell lines; format: cell-based, human; conditions: treated cell line; 0 to 200 μM or 1000 μM
HSF = assay: Cell proliferation in treated cell lines; format: cell-based, Human; conditions: treated cell line; 0 to 200 μM or 1000 μM
HT1080 = assay: Cell proliferation in treated cell lines; format: cell-based, human; conditions: treated cell line; 0 to 200 μM or 1000 μM
HepG2 = assay: Cell proliferation in treated cell lines; format: cell-based, human; conditions: treated cell line; 0 to 200 μM or 1000 μM
X4 strain LAI/IIIB = assay: RT activity in infected PBMCs treated with carbohydrates; format: cell-based, HIV; conditions: summary of Table 17
Method: Reverse Transcriptase Activity Assay: A microtiter based reverse transcriptase (RT) reaction was utilized as described by Buckheit et al., (1991), AIDS Research and Human Retroviruses, 7: 295-302. Tritiated thymidine triphosphate (3H-TTP) was suspended in distilled H2O at 5 Ci/mL. Poly rA and oligo dT were prepared as a stock solution which was kept at −20° C. RT reaction buffer was prepared fresh on a daily basis and contained 125 μL 1M EGTA, 125 μL dH2O, 110 μL 10% SDS, 50 μL 1M Tris (pH 7.4), 50 μL 1M DTT, and 40 μL 1M MgCl2. These three solutions were mixed together in a ratio of 2 parts 3H-TTP, 1 part poly rA:oligo dT, and 1 part reaction buffer. Ten microliters of this reaction mixture were placed in a round bottom microtiter plate and 15 μL of virus containing supernatant were added and mixed. The plate was incubated at 37° C. in a water bath with a solid support to prevent submersion of the plate and incubated for 60 minutes. […] Opti-Fluor-O (Packard) was added to each sample and incorporated radioactivity was quantified utilizing a Wallac 1450 MicroBeta Plus liquid scintillation counter. […]
No carbohydrates were added to the control sample. RT activity was determined at 3, 6, 9, 13, 17, and 20 days post-infection (PI) with X4 strain LAI/IIIB.

TNFα = TNFα production in latently infected promonocytic U1 cells, ELISA; format: cell-based; conditions: read-out: Inhibition of TNFα Production % of Control
Method: TNFα production was determined by an enzyme linked immunosorbent assay (ELISA) in a competitive format, using a commercially available anti-TNFα antibody. Inhibition of TNFα production is reported as percent of saline control in Table 18 and was dose dependent.

gp120 = target: T1, gp120 (Human immunodeficiency virus type 1 group M subtype B, UniProt P05877); assay: Inhibition of gp120 binding, HIVMN to CEM-SS cells; parameters: species or system HIV
T1 construct: host or cells: HIV MN virus added to CEM-SS cells

## O=C(CO)N[C@H]1[C@H]([C@H](O)[C@H](O)CO)OC(O)(C(=O)O)C[C@@H]1O (some centres unmarked) [N-glycolylneuraminic acid]
PBMCs
  TC50: > 1000 µM
HIV-1RF
  anti-HIV activity: did not display anti-HIV activity
HIV-1IIIB
  anti-HIV activity: did not display anti-HIV activity
HIV-1 MN; dilution 1:2
  CPE: negative
  Syncytia: negative
HIV-1 MN; dilution 1:4
  CPE: negative
  Syncytia: negative
HIV-1 MN; dilution 1:8
  CPE: negative
  Syncytia: negative
HIV-1 MN; dilution 1:16
  CPE: negative
  Syncytia: negative
HIV-1 MN; dilution 1:32
  CPE: negative
  Syncytia: negative
HIV-1 MN; dilution 1:64
  CPE: negative
  Syncytia: negative
Molt-4
  % Confluency (day 5): 50%
DU-145
  % Confluency (day 5): 100%
HSF
  % Confluency (day 5): 100%
HT1080
  % Confluency (day 5): 100%
HepG2
  % Confluency (day 5): 50%
X4 strain LAI/IIIB
  RT activity in treated cells (in words): RT activity was decreased
TNFα; 0.1 μM
  inhibition at 0.1 µM: 0%
TNFα; 0.3 μM
  inhibition at 0.3 µM: 0%
TNFα; 10 μM
  inhibition at 10 µM: 9.8%
TNFα; 30 μM
  inhibition at 30 µM: 22.6%
TNFα; 100 μM
  inhibition at 100 µM: 96%
gp120; 20 μm/ml
  Inhibition of gp120 Binding (% of control): 9.8%
gp120; 80 μm/ml
  Inhibition of gp120 Binding (% of control): 57.6%
gp120; 200 μm/ml
  Inhibition of gp120 Binding (% of control): 86.8%
